Experiments:
[1] = biological target: T1, OR1G1 (Homo sapiens, UniProt P47890); assay: OR1G1-based yeast sensor, GFP fluorescence by flow cytometry; assay type: cell-based; conditions: for detection by the OR1G1-sensor, acid added independently: 250 μM, each acid alone (FIG. 27); for detection by the OR1G1-sensor in a mixture of fatty acids: mixture of C10, C14 and C16 acids (FIG. 27)
T1 construct: expressed in transfected cells; host or cells: S. cerevisiae W303 Δfar1, Δsst2, Δste2 (PPY140) or additionally Δste12 (PPY161), plasmid pESC-His3-PTEF1-OR1G1 (pKM269 and derivatives)
T1 sequence (P47890 with tags, fused parts or gaps limits assumed): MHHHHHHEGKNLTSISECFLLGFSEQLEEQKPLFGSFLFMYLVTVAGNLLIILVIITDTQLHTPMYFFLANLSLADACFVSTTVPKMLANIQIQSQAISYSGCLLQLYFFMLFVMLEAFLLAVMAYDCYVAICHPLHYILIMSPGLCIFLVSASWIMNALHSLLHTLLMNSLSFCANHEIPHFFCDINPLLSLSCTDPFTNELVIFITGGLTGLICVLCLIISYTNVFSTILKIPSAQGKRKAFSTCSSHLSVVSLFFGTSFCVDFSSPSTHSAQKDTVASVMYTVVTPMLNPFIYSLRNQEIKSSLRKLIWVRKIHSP
Excerpt: (§1) The GPCRs tested were the olfactory receptor OR1G1 (Sanz, G., Schlegel, C., Pernollet, J. C., and Briand, L. (2005) Comparison of odorant specificity of two human olfactory receptors from different phylogenetic classes and evidence for antagonism, Chemical Senses 30, 69-80) and the free fatty acid receptor GPR40 (Itoh, Y., et al. (2003) Free fatty acids regulate insulin secretion from pancreatic beta cells through GPR40, Nature 422, 173-176). First, OR1G1 and GPR40 sensing of even, medium-chain saturated fatty acids (C8-C16) using PFIG1-GFP(m) was tested. A reliable signal after fatty acid addition was not observed (FIGS. 23 and 24). Hypothesizing that the large standard deviation of PFIG1-GFP(m) contributed to the inability to detect medium-chain fatty acids, PFIG1-GFP(s) was tested as the reporter plasmid. Using PFIG1-GFP(s) enabled the OR1G1 based-sensor to detect C8, C10 and C12 fatty acids with 13-, 17-, and 13-fold increases in signal after activation, respectively (FIGS. 8-9). Using PFIG1-GFP(s) also enabled the GPR40 based-sensor to detect C8, C10 and C12 saturated fatty acids, with 14-, 25-, and 16-fold increases in signal after activation, respectively (FIGS. 10-11). It was also explored whether the OR1G1-based sensor signal could be improved by expressing the OR1G1 from a single-copy (s) rather than a multi-copy (m) plasmid.
(§2) To engineer a system in which medium-chain fatty acid sensing would trigger only GFP transcription, Ste12 was replaced in the yeast strain carrying deletions of Ste2, Sst2, and Far1 with one of two synthetic transcription factors (STFs): 1) STF1, which is composed of the Ste12 phosphorylation domain and the Gal4 activation and DNA binding domains (Pi, H. W., Chien, C. T., and Fields, S. (1997) Transcriptional activation upon pheromone stimulation mediated by a small domain of Saccharomyces cerevisiae Ste12p, Mol Cell Biol 17, 6410-6418) and 2) STF2, which is composed of the Ste12 phosphorylation domain, the synthetic B42 activation domain and the bacterial LexA DNA binding domain (Golemis, E. A., and Brent, R. (1992) Fused Protein Domains Inhibit DNA-Binding by Lexa, Mol Cell Biol 12, 3006-3014 and Peralta-Yahya, P., Carter, B. T., Lin, H. N., Tao, H. Y., and Comish, V. W. (2008) High-Throughput Selection for Cellulase Catalysts Using Chemical Complementation, J Am Chem Soc 130, 17446-17452). STF1 can activate transcription of GFP placed under control of a synthetic minimal promoter carrying five Gal4 DNA binding sites (PGal4(5×)). STF2 activates transcription of GFP placed under control of a synthetic minimal promoter carrying four lexA DNA binding sites (PLexA(4×)) (FIGS. 17 and 18).
(§3) For the Ste2/α-factor sensor, strains PPY638, PPY639, PPY640, PPY641 were grown overnight in synthetic complete media with 2% glucose and lacking leucine (SD glu (L^−)). The next day, the cells were used to inoculate a 20 mL of SD glu (L^−) to an OD600=0.06 and incubated for 18 hrs at 30° C. (150 r.p.m.). The cells were centrifuged, re-suspended in 5 mL SD glu (L^−), used to innoculate 5 ml of fresh SD glu (L^−) to OD600=0.6. α-factor (0-100 nM, Zymo Y1001) was added to the medium and incubated for 4 hrs at 30° C. (150 r.p.m.) before reading for cell fluorescence using a flow cytometer. For the OR1G1- and GPR40-based sensors using Ste12/PFIG1-GFP response unit, strains PPY643, PPY644 were grown overnight in SD glu and lacking histidine and leucine (SD glu (HL^−)). The next day, the cells were used to inoculate a 20 mL of SD glu (HL^−) to an OD600=0.06 and incubated for 18 hrs at […] (150 r.p.m.). The cells were centrifuged, re-suspended in 2 ml SD glu (HL^−) to OD600=0.6. C8, C10, C12, C14 and C16 saturated fatty acids (0-800 μM) were added to the medium and incubated for 4 hrs at 30° C. (150 r.p.m.) before reading for cell fluorescence using a flow cytometer. […]

[2] = biological target: T2, GPR40 (Homo sapiens, UniProt O14842); assay: GPR40-based yeast sensor, GFP fluorescence by flow cytometry; assay type: cell-based
T2 construct: expressed in transfected cells; host or cells: S. cerevisiae W303 Δfar1, Δsst2, Δste2 (PPY140) or additionally Δste12 (PPY161), plasmid pESC-His3-PTEF1-GPR40 (pKM469 and derivatives)
Excerpt: as §1, §2, §3

[3] = 0 or 500 μM decanoic acid, PFig1-GFP(s), compared with no GPCR
[4] = STF1/PGal4(5×)-GFP response unit, 800 μM decanoic acid
[5] = Ste12/PFIG1-GFP(s), maximum at C8 800 μM, C10 250 μM, C12 500 μM
[6] = W303 Δfar1, Δsst2, Δste2, Δste12, 500 μM decanoic acid, PFig1-GFP(s)
[7] = W303 Δfar1, Δsst2, Δste2, Δste12, reporter PGal4(5x)-GFP(m), TF STF1
[8] = W303 Δfar1, Δsst2, Δste2, Δste12, reporter PLexA(4x)-GFP(m), TF STF2
[9] = W303 Δfar1, Δsst2, Δste2, reporter PFig1-GFP(s), TF Ste12
[10] = Ste12/PFIG1-GFP(s), maximum at C8 800 μM, C10 800 μM, C12 250 μM
[11] = C8, C10, C12 fatty aldehydes and alcohols, C10 methyl- and ethyl-esters, dose response

T2 sequence (O14842 whole entry): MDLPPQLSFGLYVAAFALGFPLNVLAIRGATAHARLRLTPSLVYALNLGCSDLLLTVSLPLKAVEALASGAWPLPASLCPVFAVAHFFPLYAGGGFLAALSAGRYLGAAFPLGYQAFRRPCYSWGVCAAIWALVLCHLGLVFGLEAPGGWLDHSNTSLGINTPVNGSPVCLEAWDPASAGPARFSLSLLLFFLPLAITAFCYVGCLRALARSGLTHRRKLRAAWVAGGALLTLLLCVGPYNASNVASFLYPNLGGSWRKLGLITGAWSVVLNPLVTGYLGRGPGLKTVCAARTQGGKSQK

How did the “GFP fluorescence in presence of GPCR” value [1, 3] turn out when `CCCCCCCCCC(=O)O` [C10 acid, decanoic acid] was run?
Its value is “increase in GFP fluorescence”.

And the “detection by the OR1G1-sensor, acid added independently” value [1]?
Its value is “able to detect”.

And the “linear range reaching to” value ([1]; STF1/PGal4(5×)-GFP response unit)?
The value was 500 µM.

What about the “improvement in signal after activation over the Ste12/PFIG1-GFP(s) response unit” value [1, 4] of the same compound?
Its value is about 200%.

What about the “increase in signal after activation” value [1, 4] of the same compound?
Its value is 30 fold.

And the “increase in signal after activation” value ([1]; STF2/PLexA(4×)-GFP response unit, 800 μM decanoic acid)?
The value was 7 fold.

And the “linear range plateaued at” value ([1]; Ste12/PFIG1-GFP(s) response unit)?
Its value is 250 µM.

What about the “increase in signal after activation” value [1, 5] of the same compound?
Its value is 17 fold.

And the “GFP fluorescence in the absence of Ste12” value [1, 6]?
Its value is “no observable increase in GFP fluorescence”.

And the Dynamic range [1, 7]?
Its Dynamic range is 30.

What about the GFP max [1, 7] of the same compound?
Its GFP max is 1126 AU.

And the Linear range [1, 7]?
The Linear range was 110 to 500 µM.

What about the Dynamic range [1, 8] of the same compound?
The Dynamic range was 7.

What about the GFP max [1, 8] of the same compound?
Its GFP max is 405 AU.

What about the Linear range [1, 8] of the same compound?
Its Linear range is 2 to 100 µM.

What about the Dynamic range [1, 9] of the same compound?
Its Dynamic range is 17.

And the GFP max [1, 9]?
Its GFP max is 308 AU.

And the Linear range [1, 9]?
Its Linear range is 34 to 250 µM.

And the “increase in signal after activation with chromosomal GPA1 compared with Golf and GPA1-Golf” value ([1]; above 250 μM decanoic acid)?
Its value is “greatest increase in signal after activation”.

What about the “detection by the OR1G1-sensor in a mixture of fatty acids” value (shortened to “detection … of fatty acids”) [1] of the same compound?
The value was “not able to detect”.

And the “detection … of fatty acids” value ([1]; listed as decanoic acid)?
The value was “inability”.

And the “GFP fluorescence in presence of GPCR” value [2, 3]?
Its value is “increase in GFP fluorescence”.

What about the “increase in signal after activation” value ([2]; STF1/PGal4(5×)-GFP response unit, 500 μM decanoic acid) of the same compound?
Its value is 28 fold.

What about the “increase in GFP expression” value ([2]; STF2/PLexA(4×) response unit, 500 μM C10 acid (FIG. 22)) of the same compound?
Its value is 4 fold.

What about the “increase in signal after activation” value [2, 10] of the same compound?
Its value is 25 fold.

And the “GFP fluorescence in the absence of Ste12” value [2, 6]?
The value was “no observable increase in GFP fluorescence”.

And the Dynamic range [2, 7]?
Its Dynamic range is 28.

What about the GFP max [2, 7] of the same compound?
The GFP max was 573 AU.

What about the Linear range [2, 7] of the same compound?
Its Linear range is 47 to 250 µM.

What about the Dynamic range [2, 8] of the same compound?
The Dynamic range was 4.

And the GFP max [2, 8]?
The GFP max was 501 AU.

And the Linear range [2, 8]?
Its Linear range is 4 to 100 µM.

What about the Dynamic range [2, 9] of the same compound?
Its Dynamic range is 25.

And the GFP max [2, 9]?
Its GFP max is 339 AU.

And the Linear range [2, 9]?
The Linear range was 36 to 100 µM.

And the “flow cytometry histogram of the biosensor strain” value ([2]; incubated with compound vs no compound (FIGS. 30A-30E))?
The value was “shift of the population”.

How did the “increase in signal after activation” value [1, 5] turn out when `CCCCCCCC(=O)O` [C8 acid] was run?
The value was 13 fold.

And the Dynamic range [1, 9]?
The Dynamic range was 13.

What about the GFP max [1, 9] of the same compound?
The GFP max was 239 AU.

What about the Linear range [1, 9] of the same compound?
The Linear range was 19 to 250 µM.

And the “increase in signal after activation” value [2, 10]?
The value was 14 fold.

And the Dynamic range [2, 9]?
Its Dynamic range is 14.

What about the GFP max [2, 9] of the same compound?
The GFP max was 197 AU.

What about the Linear range [2, 9] of the same compound?
The Linear range was 36 to 250 µM.

For `CCCCCCCC=O` [C8 aldehyde], which “increase in signal after activation (specificity)” value [2, 11] is on record?
The value was “unable to detect”.

Which results are given for `CCCCCCCCCCCCCCCC(=O)O` [C16 acid]?
detection by the OR1G1-sensor, acid added independently [1]: able to detect; detection by the OR1G1-sensor in a mixture of fatty acids [1]: not able to detect

How did the “detection by the OR1G1-sensor, acid added independently” value [1] turn out when `CCCCCCCCCCCCCC(=O)O` [C14 acid] was run?
The value was “able to detect”.

What about the “detection … of fatty acids” value [1] of the same compound?
Its value is “not able to detect”.

How did the “increase in signal after activation” value [1, 5] turn out when `CCCCCCCCCCCC(=O)O` [C12 acid] was run?
The value was 13 fold.

And the Dynamic range [1, 9]?
The Dynamic range was 13.

What about the GFP max [1, 9] of the same compound?
The GFP max was 233 AU.

What about the Linear range [1, 9] of the same compound?
Its Linear range is 1 to 250 µM.

And the “increase in signal after activation” value [2, 10]?
Its value is 16 fold.

And the Dynamic range [2, 9]?
Its Dynamic range is 16.

What about the GFP max [2, 9] of the same compound?
Its GFP max is 222 AU.

What about the Linear range [2, 9] of the same compound?
Its Linear range is 2 to 250 µM.

Which “increase in signal after activation” value ([2]; at 250 μM) does the source give for `CCCCCCCCCCCC=O` [C12 aldehyde] here?
Its value is 3 fold.

What does the source list for `CCCCCCCCCC=O` [C10 aldehyde]?
increase in signal after activation (specificity) [1, 11]: > 3 fold; increase in signal after activation ([2]; at 125 μM): 3 fold
